Results taken from ChEMBL document CHEMBL5625274, “Improved synthesis, molecular modeling and anti-inflammatory activity of new fluorinated dihydrofurano-naphthoquinone compounds” (Bioorg Med Chem Lett, 2024).
Where “and” joins values, the source holds several entries; their conditions need not be identical. Identical values can stand only once.

How the values were obtained:
in vitro [1] = conditions: mouse, RAW264.7 cells; at 2 µg/mL
in vitro [2] = conditions: mouse, RAW264.7 cells; at 32 µg/mL
in vitro [3] = conditions: mouse, RAW264.7 cells; at 8 µg/mL
RAW264.7 [4] = assay: cells; conditions: Mus musculus
in vitro [5] = conditions: mouse, RAW264.7 cells
in vitro [6] = conditions: mouse, RAW264.7 cells; at 0.5 µg/mL
Prostaglandin E synthase = target: T1, Prostaglandin E synthase (Homo sapiens, UniProt O14684)
T1 sequence (O14684 whole entry): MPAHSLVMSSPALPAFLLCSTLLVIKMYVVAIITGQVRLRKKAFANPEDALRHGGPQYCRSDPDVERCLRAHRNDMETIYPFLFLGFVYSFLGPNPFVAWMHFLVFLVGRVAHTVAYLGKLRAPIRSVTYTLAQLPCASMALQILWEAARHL

RAW264.7 [7] = assay: cells; conditions: Mus musculus; remark: listed apart in the source
RAW264.7 [8] = assay: cells; conditions: Mus musculus; remark: listed apart in the source

| IC50 (RAW264.7 [4]) | Ki (Prostaglandin E synthase) [µM] | IC50 (RAW264.7 [7]) [µM] | IC50 (RAW264.7 [8]) [µM] | Compound | viability at 2 ug/mL (in vitro [1]) [%] | viability at 32 ug/mL (in vitro [2]) [%] | viability at 8 ug/mL (in vitro [3]) [%] | viability at 128 ug/mL (in vitro [5]) [%] | viability at 0.5 ug/mL (in vitro [6]) [%] |
| --- | --- | --- | --- | --- | --- | --- | --- | --- | --- |
| > 268 µM and > 128 µg/mL | – | – | – | COc1ccc([C@@H]2C3=C(O[C@H]2C(=O)c2ccccc2)C(=O)c2ccccc2C3=O)c(C(F)(F)F)c1 | 100 | 100 | 100 | 40 | 100 |
| – | – | – | – | O=C1C2=C(C(=O)c3ccccc31)[C@@H](c1ccc(OC(F)F)c(O)c1)[C@H](C(=O)c1ccccc1)O2 | 46 | 5 | 15 | 2 | 71 |
| – | – | – | – | COc1ccc([C@@H]2C3=C(O[C@H]2C(=O)c2ccccc2)C(=O)c2ccccc2C3=O)c(F)c1 | 40 | 35 | 38 | 23 | 100 |
| 3.52 µM and 1.57 µg/mL | – | – | – | COc1c(F)cc([C@@H]2C3=C(O[C@H]2C(=O)c2ccccc2)C(=O)c2ccccc2C3=O)cc1F | 67 | 51 | 64 | 22 | 85 |
| 3.92 µM and 1.75 µg/mL | 184 | – | – | COc1cc(F)c([C@@H]2C3=C(O[C@H]2C(=O)c2ccccc2)C(=O)c2ccccc2C3=O)cc1F | 60 | 16 | 59 | 15 | 91 |
| – | – | > 2.9 | > 2.9 | CCCCc1cc2c(o1)C(=O)c1ccccc1C2=O | – | – | – | – | – |
| > 276 µM and > 128 µg/mL | – | – | – | O=C1C2=C(C(=O)c3ccccc31)[C@@H](c1ccc(OC(F)(F)F)cc1)[C@H](C(=O)c1ccccc1)O2 | 100 | 70 | 100 | 34 | 100 |
| – | – | – | – | O=C1C2=C(C(=O)c3ccccc31)[C@@H](c1ccc(O)c(F)c1)[C@H](C(=O)c1ccccc1)O2 | 45 | 10 | 41 | 4 | 99 |
| – | – | > 2.9 | > 2.9 | CCc1cc2c(o1)C(=O)c1ccccc1C2=O | – | – | – | – | – |
| 222 µM and 109 µg/mL | – | – | – | O=C1C2=C(C(=O)c3ccccc31)[C@@H](c1ccc(Oc3ccc(F)cc3)cc1)[C@H](C(=O)c1ccccc1)O2 | 99 | 99 | 99 | 29 | 100 |
| – | – | – | – | O=C1C2=C(C(=O)c3ccccc31)[C@@H](c1ccc(O)cc1F)[C@H](C(=O)c1ccccc1)O2 | 22 | 15 | 19 | 3 | 29 |
| 1.54 µM and 0.66 µg/mL | 241 | – | – | COc1ccc([C@@H]2C3=C(O[C@H]2C(=O)c2ccccc2)C(=O)c2ccccc2C3=O)cc1F | 60 | 41 | 51 | 38 | 71 |
| 15.8 µM and 6.28 µg/mL | – | – | – | O=C1C2=C(C(=O)c3ccccc31)[C@@H](c1ccc(F)cc1)[C@H](C(=O)c1ccccc1)O2 | 100 | 33 | 69 | 2 | 100 |
| – | – | < 2.9 | < 2.9 | Cc1cc2c(o1)C(=O)c1ccccc1C2=O | – | – | – | – | – |
| – | – | – | – | O=C1C2=C(C(=O)c3ccccc31)[C@@H](c1ccccc1F)[C@H](C(=O)c1ccccc1)O2 | 32 | 15 | 20 | 0 | 81 |
